In ChEMBL document CHEMBL1201862, “PubChem BioAssay data set” (2004):
Activity calls are given as the source filed them. Cut-off read from the data, not from the text of the source: actives have a measured IC50 and inactives only a lower limit.

Target: Envelope glycoprotein gp160 (Human immunodeficiency virus 1, UniProt Q6QLK5)
Assay: inhibitors of HIV fusion peptide binding, primary screen, biochemical, uHTS, fluorescence dequenching (AID 1986)

Sequence of Envelope glycoprotein gp160 (Q6QLK5 whole entry, the tested form may be a part): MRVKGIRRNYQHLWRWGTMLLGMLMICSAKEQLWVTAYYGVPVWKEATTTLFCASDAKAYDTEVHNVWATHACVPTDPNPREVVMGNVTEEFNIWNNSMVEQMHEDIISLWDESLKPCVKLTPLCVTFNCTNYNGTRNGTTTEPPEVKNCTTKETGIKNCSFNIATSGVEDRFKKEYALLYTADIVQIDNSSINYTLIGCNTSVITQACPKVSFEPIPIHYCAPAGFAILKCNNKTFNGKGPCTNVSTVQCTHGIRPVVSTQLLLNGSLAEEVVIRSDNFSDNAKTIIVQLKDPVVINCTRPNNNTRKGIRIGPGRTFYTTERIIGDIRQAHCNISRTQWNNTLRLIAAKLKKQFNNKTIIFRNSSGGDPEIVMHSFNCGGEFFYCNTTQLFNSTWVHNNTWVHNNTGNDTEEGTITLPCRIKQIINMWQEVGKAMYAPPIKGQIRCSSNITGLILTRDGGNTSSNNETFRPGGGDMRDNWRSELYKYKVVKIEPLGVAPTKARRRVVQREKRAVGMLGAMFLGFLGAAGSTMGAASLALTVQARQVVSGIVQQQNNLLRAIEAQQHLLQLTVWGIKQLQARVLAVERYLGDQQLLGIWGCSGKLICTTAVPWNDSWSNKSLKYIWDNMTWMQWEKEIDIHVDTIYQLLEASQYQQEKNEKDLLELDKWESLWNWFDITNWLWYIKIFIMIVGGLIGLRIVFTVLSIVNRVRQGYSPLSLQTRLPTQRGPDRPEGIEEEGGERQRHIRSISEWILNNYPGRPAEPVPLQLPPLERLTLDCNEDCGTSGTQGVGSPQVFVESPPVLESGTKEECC

COc1cc(/C=C2\C(=N)N3N=C(S(C)(=O)=O)SC3=NC2=O)ccc1OC(=O)c1ccco1
IC50: 21.9 µM (active)

O=C(O)COc1ccccc1/C=N/NC(=O)CSc1nnc(SCc2cccc3ccccc23)s1
IC50: 26.6 µM (active)
